Here are results for six compounds from US7863324B2, “Chroman-derived compounds for the treatment of cancer” (Wisconsin Alumni Research Foundation, priority 2003, dated 2011).

For orientation: pIC50 means the IC50 on a negative log10 scale, so that one unit is a factor of ten. A word on the inhibition: it is the relative decrease from the control value, in per cent.

pIC50: −log10 of the molar value. Several values for one entry are separate records, joined by “and”; a condition that tells them apart may be missing. Identical values can stand only once. Entries after “also recorded” stand apart in the source; their conditions may differ. Like-named read-outs stand apart in the source and are kept apart here.

In data set [1] the test system is MMTV promoter activity in LAPC4 cells. The experiment in a line: Androgen-stimulated MMTV promoter luciferase reporter assay, LAPC4. The data set is classed as cell-based, human. As for the experimental part: (§1) Androgen-stimulated promoter reporter assay analysis. LNCaP and LAPC4 prostate carcinoma cell lines were cultured in 12-well cell culture plates (Costar) in DMEM/CSS 2 to 3 d before transfection. Androgen-induced trancriptional activation was determined using a reporter construct with an MMTV promoter that regulates the expression of luciferase (24). LNCaP and LAPC4 cells were transfected with the MMTV/luciferase plasmid using the Effectene Transfection Reagent (Qiagen Inc., Valencia, Calif.), according to the manufacturer's instructions. Twenty-four h after transfection, cells were treated with R1881 with or without test reagents at the specified concentrations. Cell extracts were acquired 24 to 48 h after treatment by removing medium, washing 1× with PBS, and obtaining extract with 200 μL of 1× Reporter Lysis Buffer (Promega, Madison, Wis.). Luciferase activity was determined as previously described (24).
(In general: Reporter assays use an easily measured gene product as a stand-in for the process of interest.)

Data set [2] relates to MMTV promoter activity in LNCaP cells. Put plainly: Androgen-stimulated MMTV promoter luciferase reporter assay, LNCaP. The data set is classed as cell-based, human. The settings on record: for decrease of R1881-induced luciferase expression: 24 h. The method, then:
as §1

Data set [3] concerns PSA secretion from LNCaP cells. Put plainly: Androgen-induced PSA secretion from LNCaP cells. It is filed as cell-based, human. The conditions noted are these: 48 h. As for the experimental part:
Determination of secreted PSA levels. LNCaP cells were cultured in 96 well plates (Costar) at 5,000 cells per well in DMEM/CSS 1 d before treatment. Forty-eight h after treatment, PSA levels in cell culture media were determined using the Tandem-MP PSA kit (Beckman Coulter, Inc.) according to manufacturer's instructions. PSA levels were normalized to DNA levels as determined using a Hoechst-based fluorescence DNA assay (23).

Data set [4] concerns AR protein levels in LNCaP cells. Put plainly: Immunoblot analysis of AR protein levels. The data set is classed as cell-based, human. The conditions noted are these: 30 μM compound, 5 d, medium with 5% serum. As for the experimental part:
Immunoblot analysis of AR protein levels. LNCaP cells were plated at a density of 1×10^6 cells per 100 mm cell culture plate in 10 ml of DMEM/FBS and maintained in incubators at 37° C. in 5% CO2. […] Membranes were then incubated with a secondary horseradish peroxidase-conjugated anti-mouse antibody (Amersham Pharmacia Biotech, Piscataway, N.J.) and analyzed using the Enhanced Chemiluminescence Plus reagent (Amersham Pharmacia Biotech). Autoradiograms were prepared by exposing the blots to BioMax Light X-ray film (Eastman Kodak Co., Rochester, N.Y.) and developed using a CURIX 60 CP Processor (Agfa, Ridgefield Park, N.J.).

A further data set deals with LNCaP cells. Put plainly: Cell growth analysis (Hoechst DNA assay), LNCaP. The data set is classed as cell-based, human. The settings on record: 4 d. The method, then:
(§2) Cell growth and viability analyses. Five thousand LNCaP or LAPC4 cells were plated in each well of 96-well plates (Costar) in 100 μl of DMEM/CSS. Two to 3 d after plating, cells were treated by adding 100 μl of DMEM/CSS containing 2× the concentration of the specified treatment to each well. Four d after treatment, the relative cell number was estimated by the determining DNA concentration of each well using a Hoechst-based fluorescence DNA assay, as previously described (23). Growth analysis with DU145 cells was performed similar to those with LNCaP and LAPC4 cells except DUI45 cells were initially seeded at 500 cells per well. Cell viability was determined by trypan blue exclusion and quantified by light microscopic analysis using a hemacytometer.

The target in data set [5] is T1, androgen receptor in LNCaP cells (functional mutant AR) (Homo sapiens, UniProt P10275, T878A).
T1 construct: host or cells: LNCaP
T1 sequence (P10275 1-920 T878A): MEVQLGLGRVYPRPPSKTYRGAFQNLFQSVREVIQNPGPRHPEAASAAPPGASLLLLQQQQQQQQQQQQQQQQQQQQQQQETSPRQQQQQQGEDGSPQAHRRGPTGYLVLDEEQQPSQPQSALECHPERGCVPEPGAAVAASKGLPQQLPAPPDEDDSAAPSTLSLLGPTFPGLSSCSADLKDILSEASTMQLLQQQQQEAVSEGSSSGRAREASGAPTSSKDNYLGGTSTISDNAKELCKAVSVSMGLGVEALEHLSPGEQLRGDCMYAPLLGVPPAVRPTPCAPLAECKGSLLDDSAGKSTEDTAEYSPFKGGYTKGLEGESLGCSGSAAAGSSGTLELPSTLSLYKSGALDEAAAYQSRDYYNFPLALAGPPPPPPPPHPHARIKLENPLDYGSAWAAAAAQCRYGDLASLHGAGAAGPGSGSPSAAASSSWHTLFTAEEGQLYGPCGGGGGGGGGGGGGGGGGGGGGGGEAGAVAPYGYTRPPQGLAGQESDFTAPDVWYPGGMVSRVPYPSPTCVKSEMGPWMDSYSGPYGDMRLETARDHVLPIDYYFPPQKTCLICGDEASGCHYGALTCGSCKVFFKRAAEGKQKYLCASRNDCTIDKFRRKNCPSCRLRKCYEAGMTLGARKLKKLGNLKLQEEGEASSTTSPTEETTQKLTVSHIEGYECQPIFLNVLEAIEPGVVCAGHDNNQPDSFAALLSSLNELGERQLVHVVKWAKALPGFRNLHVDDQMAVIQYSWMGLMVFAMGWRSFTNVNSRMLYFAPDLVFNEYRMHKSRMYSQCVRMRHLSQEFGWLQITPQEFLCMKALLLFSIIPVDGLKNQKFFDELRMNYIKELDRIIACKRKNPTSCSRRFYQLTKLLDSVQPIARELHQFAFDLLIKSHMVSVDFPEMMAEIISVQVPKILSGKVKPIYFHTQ
Put plainly: Androgen receptor binding competition assay (3H-R1881) in LNCaP cells. The method, then:
(§3) Androgen receptor binding competition assay. An androgen receptor binding competition assay was performed as previously described (22). LNCaP or LAPC4 prostate carcinoma cells were plated in 12-well tissue culture dishes (Costar, Corning, N.Y.) at 3.0×10^5 cells per well in phenol-red free DMEM/CSS 3 d prior to analysis. For competitor analysis, DMEM/CSS was removed by aspiration and replaced with 1 mL of phenol-red free DMEM containing 1 nM ^3H-R1881, 1 μM triamcinolone acetonide, and competitor at the specified concentrations for 2 h at 37° C. in a 5% CO2 incubator. […] Cells were washed twice with 1 mL phenol red-free DMEM and placed in 8.0 mL of ScintiVerse II Scintillation Cocktail (Fisher Scientific, Pittsburgh, Pa.) for determination of radioactivity (i.e., dpm) using a Beckman LS 6000TA Liquid Scintillation System (Beckman Instruments Inc., Fullerton, Calif.).

The subject of data set [6] is androgen receptor protein levels in LNCaP cells. The settings on record: cited from earlier work.
For data set [7] the following is noted: general statement; cited from earlier work.
The procedure of data set [8]:
The oral toxicity of PMCol was determined in 6 month-old male FVB mice. A single high oral dose of 1000 mg/kg PMCol in sesame oil was administered to 4 mice by gavage. Four control mice received only sesame oil by gavage (vehicle control). […] In a second study, four 6 month-old male FVB mice received 200 mg/kg PMCol daily in sesame oil by gavage for 10 days. Three mice receiving only sesame oil (vehicle control) were used as controls. Body weights were determined daily and all mice were autopsied to examine gross organ changes on day 11.

The test system of a further data set is LAPC4 cells. Put plainly: Cell growth analysis (Hoechst DNA assay), LAPC4. The data set is classed as cell-based, human. The conditions noted are these: medium with 5% serum, 4 d. As for the experimental part: as §2
Data set [9] deals with androgen receptor in LAPC4 cells (normal human AR) (Homo sapiens, UniProt P10275). The experiment in a line: Androgen receptor binding competition assay (3H-R1881) in LAPC4 cells. As for the experimental part: as §3
Sequence of androgen receptor in LAPC4 cells (normal human AR) (P10275 whole entry): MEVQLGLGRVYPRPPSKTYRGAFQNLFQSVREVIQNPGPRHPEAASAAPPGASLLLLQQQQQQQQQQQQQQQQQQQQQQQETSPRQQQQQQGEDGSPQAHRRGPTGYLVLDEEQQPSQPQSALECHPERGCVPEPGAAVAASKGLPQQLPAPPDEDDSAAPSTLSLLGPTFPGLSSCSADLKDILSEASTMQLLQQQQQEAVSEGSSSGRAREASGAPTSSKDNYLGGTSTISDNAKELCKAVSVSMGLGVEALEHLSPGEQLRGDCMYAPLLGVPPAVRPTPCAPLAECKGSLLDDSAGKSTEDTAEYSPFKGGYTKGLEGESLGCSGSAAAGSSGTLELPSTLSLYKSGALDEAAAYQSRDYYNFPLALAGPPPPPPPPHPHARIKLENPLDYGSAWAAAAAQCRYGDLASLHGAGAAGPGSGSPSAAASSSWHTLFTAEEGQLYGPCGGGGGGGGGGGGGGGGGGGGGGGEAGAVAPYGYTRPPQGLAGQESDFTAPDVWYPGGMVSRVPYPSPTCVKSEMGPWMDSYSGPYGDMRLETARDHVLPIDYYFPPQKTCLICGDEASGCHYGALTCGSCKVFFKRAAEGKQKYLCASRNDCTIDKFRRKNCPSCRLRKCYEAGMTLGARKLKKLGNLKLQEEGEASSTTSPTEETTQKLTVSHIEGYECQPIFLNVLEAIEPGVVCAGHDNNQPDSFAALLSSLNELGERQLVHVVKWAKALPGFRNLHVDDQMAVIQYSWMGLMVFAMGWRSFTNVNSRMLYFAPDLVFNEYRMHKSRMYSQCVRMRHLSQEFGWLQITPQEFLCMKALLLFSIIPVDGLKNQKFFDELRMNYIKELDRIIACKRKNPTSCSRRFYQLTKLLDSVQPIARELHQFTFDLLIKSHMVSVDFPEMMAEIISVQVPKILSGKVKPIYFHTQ
A short description of another data set: Water solubility. The conditions noted are these: cell culture studies. It is filed as physicochemical.

For the compound `C[C@]1(O)CC[C@H]2[C@@H]3CCC4=CC(=O)CCC4=C3C=C[C@@]21C` [R1881, methyltrienolone, reference compound], the “increase in MMTV/LTR driven luciferase expression” value in data set [1] (1.0 nM R1881) worked out at 20 fold. The “increase in luciferase expression” value in data set [2] (1.0 nM R1881, 24 h) was found to be 54 fold. In addition, the “increase in PSA levels” value worked out at 3.1 fold in data set [3] (0.05 nM R1881) and 12 fold in data set [3] (1.0 nM R1881).

`Cc1cc(C)c2c(c1C)OC(C)(C)CC2` [PMC, 2,2,5,7,8-pentamethylchroman, reference compound]: the AR protein levels entry in [4] is “did not result in altered AR protein levels; also recorded: not significantly altered”. In addition, the “shift of R1881-stimulated biphasic LNCaP growth curve” value in the data set with LNCaP cells (30 μM compound) is listed as “more modest, but significant, shift to the right”. The “R1881 concentration giving in control cells the growth response equivalent to that at 0.3 nM R1881 under treatment” value (“R1881 concentration giving” for short) in the data set with LNCaP cells (LNCaP, 30 μM compound) is on record as 0.03 nM. In addition, the “decrease of R1881-stimulated PSA levels” value in data set [3] (1.0 nM R1881, 30 μM compound) was determined as 20%. Moreover, the “anti-androgenic activity in 3H-R1881 competition compared with PMCol” value in data set [5] (LNCaP cells, FIG. 2A) was “less anti-androgenic activity than PMCol”.

Take `CC(O)(CS(=O)(=O)c1ccc(F)cc1)C(=O)Nc1ccc(C#N)c(C(F)(F)F)c1` (stereo not shown) [bicalutamide, reference compound]: the “decrease of R1881-stimulated luciferase expression” value in data set [1] (1.0 nM R1881, 1 μM compound) was “approximately 50%”; in data set [2] (1.0 nM R1881, 1 μM compound) it was “approximately 50%”. The “R1881 concentration giving” value in the data set on LNCaP cells (LNCaP, 1 μM compound) turned out to be 0.03 nM. Moreover, the “decrease of R1881-stimulated PSA levels” value in data set [3] (1.0 nM R1881, 1 μM compound) came to 43%.

For the compound `COc1cc(/C=C/C(=O)CC(=O)/C=C/c2ccc(O)c(OC)c2)ccc1O` [curcumin], in data set [6], the “effect on AR protein levels” value was “down-regulate androgen receptor protein levels”.

With `Cc1c(C)c2c(c(C)c1O)CC[C@@](C)(CCC[C@H](C)CCC[C@H](C)CCCC(C)C)O2` [vitamin E, α-tocopherol], the solubility in water result in data set [7] is given as “practically insoluble in water”.

As for `Cc1c(C)c2c(c(C)c1O)CCC(C)(C)O2` [PMCol, 2,2,5,7,8-pentamethyl-6-chromanol], in data set [8] (200 mg/kg daily by gavage for 10 days, autopsy day 11), the “gross changes in organs at autopsy” value was “No gross changes in organs”. The “change in animal body mass” value in data set [8] (mouse, in vivo) is on record as “no significant change”. Further, the LD50 in data set [8] (mouse, in vivo, po) is more than 1000 mg/kg body weight. In addition, the “change in animal behavior or body mass” value in [8] (mouse, in vivo, po, 1000 mg/kg) is “No significant change”. For the same compound, the “concentration required to significantly reduce cell growth” value with LAPC4 cells is not below 60 µM. The “decrease in 3H-R1881 binding” value in [9] (30 μM compound) is 75%. Further, the pIC50 is approximately 5.00 in [9] (against 1 nM R1881); ~5.00 and 5.14 in data set [5] (LNCaP cells, against 1 nM 3H-R1881, estimated (FIG. 2A), read-out: IC50 for competition of 3H-R1881 binding); 4.82 to 5.30 in data set [5] (repeated studies, data not shown, read-out: IC50 values, repeated studies of competition for 3H-R1881 binding). The AR protein levels entry in [4] is “did not affect androgen receptor protein levels; also recorded: did not result in altered AR protein levels; also recorded: not significantly altered”. Besides, the water solubility result in the data set “Water solubility” was “sufficiently water soluble to permit studies in cell culture”. The “LNCaP cell growth in presence of growth inhibitory R1881” value in the data set on LNCaP cells (1.0 nM R1881, 10 μM to 30 μM compound) is “significant stimulation”. In addition, the “shift of R1881-stimulated biphasic LNCaP growth curve” value in the data set on LNCaP cells (30 μM compound) is reported as “shifted to the right”. Moreover, in the data set with LNCaP cells (LNCaP, 0.1 nM R1881), the “concentration significantly inhibiting R1881-stimulated LNCaP growth” value was not below 10 µM. The “R1881 concentration giving” value in the data set with LNCaP cells (LNCaP, 30 μM compound) was determined as 0.03 nM. Moreover, in the data set with LNCaP cells (LNCaP, FIG. 3B), the “concentration at which LNCaP cell growth was decreased” value was not below 40 µM. The “growth modulatory (AR agonist) activity in androgen-deficient media” value in the data set on LNCaP cells (LNCaP, no R1881, 10 μM to 30 μM) was “no growth modulatory activity”. Also, the “decrease of R1881-induced luciferase expression” value in data set [2] (1.0 nM R1881, 25 μM compound) turned out to be 50%; in data set [2] (1.0 nM R1881, 50 μM compound), 70%. Also, in data set [2] (no R1881), the “MMTV promoter activity, compound alone” value is given as “no effect”. The “inhibition of R1881-stimulated PSA release” value in data set [3] (0.05 nM R1881, 30 μM compound) is reported as “completely inhibited”. In addition, the “decrease of R1881-stimulated PSA levels” value in data set [3] (1.0 nM R1881, 30 μM compound) is 80% and 81%. For the same compound, the “PSA release from LNCaP cells, compound alone” value in [3] (30 μM, no R1881) is “not affected”. The inhibition at 30 µM in data set [3] (Homo sapiens, LNCaP, 0.05 nM R1881, 30 μM compound, read-out: inhibition of R1881-stimulated PSA release) was 100%. In addition, in data set [5] (LNCaP cells), the “potency at competing for 3H-R1881 relative to bicalutamide (fold less potent)” value is “approximately 10 fold”.
